What follows are compounds tested against T1, human PPARdelta (Homo sapiens, UniProt Q03181) (assay: Cellular PPARdelta assay (luciferase reporter, stably transfected HEK cell line)). Details: GR-GAL4-humanPPARdelta-LBD.
T1 construct: amino acids S139-Y441; expressed in transfected cells
T1 sequence (Q03181 139-441): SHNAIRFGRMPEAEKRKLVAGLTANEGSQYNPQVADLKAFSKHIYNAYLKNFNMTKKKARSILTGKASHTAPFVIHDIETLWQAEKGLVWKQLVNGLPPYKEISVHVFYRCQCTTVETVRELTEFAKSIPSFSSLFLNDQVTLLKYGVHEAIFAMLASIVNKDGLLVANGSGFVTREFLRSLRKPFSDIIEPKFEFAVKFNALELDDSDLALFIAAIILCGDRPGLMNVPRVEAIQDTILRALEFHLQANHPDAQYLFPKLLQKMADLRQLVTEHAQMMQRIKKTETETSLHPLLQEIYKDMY
Format: cell-based
Description: The activity of PPARalpha agonists is determined in a 3-day assay which is described below:
The PPARalpha reporter cell line is cultivated to 80% confluence in DMEM (#41965-039, Invitrogen) which is mixed with the following additions: 10% cs-FCS (fetal calf serum; #SH-30068.03, Hyclone), 0.5 mg/ml zeocin (#R250-01, Invitrogen), 0.5 mg/ml G418 (#10131-027, Invitrogen), 1% penicillin-streptomycin solution (#15140-122, Invitrogen) and 2 mM L-glutamine (#25030-024, Invitrogen). The cultivation takes place in standard cell culture bottles (#353112, Becton Dickinson) in a cell culture incubator at 37° C. in the presence of 5% CO2. The 80%-confluent cells are washed once with 15 ml of PBS (#14190-094, Invitrogen), treated with 3 ml of trypsin solution (#25300-054, Invitrogen) at 37° C. for 2 min, taken up in 5 ml of the DMEM described and counted in a cell counter. After dilution to 500.000 cells/ml, 35,000 cells are seeded in each well of a 96 well microtiter plate with a clear plastic base (#3610, Corning Costar). The plates are incubated in the cell culture incubator at 37° C. and 5% CO2 for 24 h.
PPARalpha Agonists to be Tested are Dissolved in DMSO in a Concentration of 10 mM. This stock solution is diluted in DMEM (#41965-039, Invitrogen) which is mixed with 5% cs-FCS (#SH-30068.03, Hyclone), 2 mM L-glutamine (#25030-024, Invitrogen) and the previously described antibiotics (zeocin, G418, penicillin and streptomycin). Test substances are tested in 11 different concentrations in the range from 10 μM to 100 pM.
The medium of the PPARalpha reporter cell line seeded on day 1 is completely removed by aspiration, and the test substances diluted in medium are immediately added to the cells. The dilution and addition of the substances is carried out by a robot (Beckman FX). The final volume of the test substances diluted in medium is 100 μl per well of a 96 well microtiter plate. The DMSO concentration in the assay is less than 0.1% v/v in order to avoid cytotoxic effects of the solvent.
The assay plates are incubated in an incubator at 37° C. and 5% CO2 for 24 h.
The PPARalpha reporter cells treated with the test substances are removed from the incubator, and the medium is aspirated off. The cells are lyzed by pipetting 50 μl of Bright Glo reagent (from Promega) into each well of a 96 well microtiter plate. After incubation at room temperature in the dark for 10 minutes, the microtiter plates are measured in the luminometer (Trilux from Wallac). The measuring time for each well of a microtiter plate is 1 sec.
The raw data from the luminometer are transferred into a Microsoft Excel file. Dose-effect plots and EC50 values of PPAR agonists are calculated using the XL.Fit program as specified by the manufacturer (IDBS).
The potency of substances which bind to human PPARdelta and activate it in an agonistic manner is analyzed using a stably transfected HEK cell line (HEK=human embryo kidney) which is referred to here as PPARdelta reporter cell line. In analogy to the assay described for PPARalpha, the PPARdelta reporter cell line also contains two genetic elements, a luciferase reporter element (pdeltaM-GAL4-Luc-Zeo) and a PPARdelta fusion protein (GR-GAL4-humanPPARdelta-LBD) which mediates expression of the luciferase reporter element depending on a PPARdelta ligand. The stably and constitutively expressed fusion protein GR-GAL4-humanPPARdelta-LBD binds in the cell nucleus of the PPARdelta reporter cell line via the GAL4 protein portion to the GAL4 DNA binding motifs 5′-upstream of the luciferase reporter element which is stably integrated in the genome of the cell line. There is only little expression of the luciferase reporter gene in the absence of a PPARdelta ligand if fatty acid-depleted fetal calf serum (cs-FCS) is used in the assay. PPARdelta ligands bind and activate the PPARdelta fusion protein and thereby stimulate expression of the luciferase reporter gene. […]
An EC50 of 0.04 µM was found for `CCOc1cc(C(F)(F)F)ccc1C(=O)NCC(CC)c1ccc(S(=O)(=O)Nc2nnc(C(C)C)s2)cc1` (single isomer, unassigned) [Example 44a] in this work.
An EC50 of 0.76 µM was found for `CC(C)c1nnc(NS(=O)(=O)c2ccc(CNC(=O)c3ccc(C(F)(F)F)cc3)cc2)s1` [Example 24, N-[4-(5-Isopropyl-[1,3,4]thiadiazol-2-ylsulfamoyl)-benzyl]-4-trifluoromethyl-benzamide] in this work.
An EC50 of 0.01 µM was found for `CCOc1cc(C(F)(F)F)ccc1C(=O)NCC(CC)c1ccc(S(=O)(=O)Nc2nnc(C(C)C)s2)cc1` (single isomer, unassigned) [Example 44b] in this work.
An EC50 of 3.61 µM was found for `Cc1ccc(Cl)cc1C(=O)NCCc1ccc(S(=O)(=O)Nc2nnc(-c3ccccc3)s2)cc1` [Example 32, 5-Chloro-2-methyl-N-{2-[4-(5-phenyl-[1,3,4]thiadiazol-2-ylsulfamoyl)-phenyl]-ethyl}-benzamide] in this work.
An EC50 of 0.04 µM was found for `CCOc1cc(C(F)(F)F)ccc1C(=O)NCC(C)c1ccc(S(=O)(=O)Nc2nnc(C(C)C)s2)cc1` (single isomer, unassigned) [Example 43a] in this work.
An EC50 of 0.02 µM was found for `CCOc1cc(C(F)(F)F)ccc1C(=O)NCC(C)c1ccc(S(=O)(=O)Nc2nnc(C(C)C)s2)cc1` (racemic) [Example 43, 2-Ethoxy-N-{2-[4-(5-isopropyl-[1,3,4]thiadiazol-2-ylsulfamoyl)-phenyl]-propyl}-4-trifluoromethyl-benzamide] in this work.
An EC50 of 0.06 µM was found for `Cc1cc(Br)c(C(=O)NCCc2ccc(S(=O)(=O)Nc3nnc(C(C)C)s3)cc2)s1` [Example 47, 3-Bromo-5-methyl-thiophene-2-carboxylic acid {2-[4-(5-isopropyl-[1,3,4]thiadiazol-2-ylsulfamoyl)-phenyl]-ethyl}-amide] in this work.
An EC50 of 0.11 µM was found for `COc1cc(C(F)(F)F)ccc1C(=O)NCCc1ccc(S(=O)(=O)Nc2nnc(C(C)C)s2)cc1` [Example 1, N-{2-[4-(5-Isopropyl-[1,3,4]thiadiazol-2-ylsulfamoyl)-phenyl]-ethyl}-2-methoxy-4-trifluoromethyl-benzamide] in this work.
An EC50 of 0.44 µM was found for `COc1ccc(C(C)(C)C)cc1C(=O)NCCc1ccc(S(=O)(=O)Nc2nnc(C(C)C)s2)cc1` [Example 2, 5-tert-Butyl-N-{2-[4-(5-isopropyl-[1,3,4]thiadiazol-2-ylsulfamoyl)-phenyl]-ethyl}-2-methoxy-benzamide] in this work.
An EC50 of 1.1 µM was found for `COc1ccc(C(=O)NCCc2ccc(S(=O)(=O)Nc3nnc(C(C)C)s3)cc2)c(OC)n1` [Example 5, N-{2-[4-(5-Isopropyl-[1,3,4]thiadiazol-2-ylsulfamoyl)-phenyl]-ethyl}-2,6-dimethoxy-nicotinamide] in this work.
An EC50 of 2.8 µM was found for `CC(C)(C)c1nnc(NS(=O)(=O)c2ccc(CCNC(=O)c3cc(Cl)ccc3Cl)cc2)s1` [Example 35, N-{2-[4-(5-tert-Butyl-[1,3,4]thiadiazol-2-ylsulfamoyl)-phenyl]-ethyl}-2,5-dichloro-benzamide] in this work.
An EC50 of 0.02 µM was found for `CCOc1cc(C(F)(F)F)ccc1C(=O)NCC(C)c1ccc(S(=O)(=O)Nc2nnc(C(C)C)s2)cc1` (single isomer, unassigned) [Example 43b] in this work.
